Experimental data as given in patent US20260256792A1, “TREATMENT OF CHRONIC SPONTANEOUS URTICARIA BY ADMINISTERING (R)-2-[3-[4-AMINO-3-(2-FLUORO-4-PHENOXY-PHENYL)PYRAZOLO[3,4-D]PYRIMIDIN-1-YL]PIPERIDINE-1-CARBONYL]-4-METHYL-4-[4-(OXETAN-3-YL)PIPERAZIN-1-YL]PENT-2-ENENITRILE” (priority 2023, published 2026).

System: moderate-to-severe chronic spontaneous urticaria (CSU)
Experiment: Phase 2 CSU study: hives severity score over 7 days (HSS7)
Format: in vivo, human
Design: key to HSS7 Change from baseline, Median / HSS7, Median / HSS7, Max / HSS7 Change from baseline, Q1 / HSS7 Change from baseline, Q3 / HSS7 Change from baseline, Max: 7-day sum of daily hive scores, each 0 = none to 3 = >50 hives
Excerpt: The study comprises a 12 week, randomized, double-blind, placebo-controlled, multi-center, dose-ranging efficacy and safety phase, followed by a 40 week open label extension (OLE) phase (see FIG. 1).
The study consists of three phases and an optional OLE phase.
The UAS is a validated PRO measure. The daily UAS is the sum of the daily Hive Severity Score (HSS, ranging from 0=None to 3=more than 50 hives) and the daily Itch Severity Score (ISS, ranging from 0=None to 3=intense), the 2 key urticaria signs and symptoms which are wheals and itch. The daily UAS scores range from 0 to 6 point/day. Daily UAS scores are summed over 7-day period to create the UAS7, ranging from 0 to 42, and are composed of the HSS7 and ISS7 components. […] Patients were to complete the UAS using the e-diary. The e-diary was to be used once daily on the same time of each day recording of participant's answers to the urticaria activity score over 7 days (UAS7) questionnaire. For participants who entered the OLE phase, their answers to the UAS7 questionnaire were also to be collected from Week 20 to Week24 and from Week 48 to Week 52.
The following secondary endpoints were to be analyzed using the same approach as for the primary endpoint: • Change from baseline in UAS7 at Week 4 • Change from baseline in UAS7 at Week 12 (for US and US reference countries) • Change from baseline in ISS7 at Week 12 (except US and US reference countries) • Change from baseline in HSS7 at Week 12

[1] = Week 1, 400 mg BID, Omalizumab-Naïve Population
[2] = Week 1, 400 mg BID, Patients with Prior Omalizumab Use
[3] = Week 1, 400 mg QPM, Omalizumab-Naïve Population
[4] = Week 1, 400 mg QPM, Patients with Prior Omalizumab Use
[5] = Week 1, 400 mg TID, Omalizumab-Naïve Population
[6] = Week 1, 400 mg TID, Patients with Prior Omalizumab Use
[7] = Week 2, 400 mg BID, Omalizumab-Naïve Population
[8] = Week 2, 400 mg BID, Patients with Prior Omalizumab Use
[9] = Week 2, 400 mg QPM, Omalizumab-Naïve Population
[10] = Week 2, 400 mg QPM, Patients with Prior Omalizumab Use
[11] = Week 2, 400 mg TID, Omalizumab-Naïve Population
[12] = Week 2, 400 mg TID, Patients with Prior Omalizumab Use
[13] = Week 3, 400 mg BID, Omalizumab-Naïve Population
[14] = Week 3, 400 mg BID, Patients with Prior Omalizumab Use
[15] = Week 3, 400 mg QPM, Omalizumab-Naïve Population
[16] = Week 3, 400 mg QPM, Patients with Prior Omalizumab Use
[17] = Week 3, 400 mg TID, Omalizumab-Naïve Population
[18] = Week 3, 400 mg TID, Patients with Prior Omalizumab Use

`CC(C)(C=C(C#N)C(=O)N1CCC[C@@H](n2nc(-c3ccc(Oc4ccccc4)cc3F)c3c(N)ncnc32)C1)N1CCN(C2COC2)CC1` [rilzabrutinib, (R)-2-[3-[4-amino-3-(2-fluoro-4-phenoxy-phenyl)pyrazolo[3,4-d]pyrimidin-1-yl]piperidine-1-carbonyl]-4-methyl-4-[4-(oxetan-3-yl)piperazin-1-yl]pent-2-enenitrile] was tested, and the “HSS7 change from baseline at Week 12, LS Mean Diff vs. placebo” value (Omalizumab-naïve Population, 400 mg TID, ANCOVA) was −3.24, the “HSS7, Mean (SD)” value [1] was 9.26 (5.76) and the “HSS7 Change from baseline, Mean (SD)” value [1] was −5.02 (4.53). For the same molecule, the “HSS7 Change from baseline, Median” value [1] was −5.00, the “HSS7 Percent change from baseline, Mean (SD)” value (“HSS7 Percent change … (SD)” below) [1] was −36.53 (34.65) % and the “HSS7 Percent change from baseline, Median” value (“HSS7 Percent change … Median” below) [1] was −28.57%. The “HSS7, Mean (SD)” value [2] was 9.67 (6.41), the “HSS7 Change from baseline, Mean (SD)” value [2] was −5.50 (6.41) and the “HSS7 Change from baseline, Median” value [2] was −3.00. The “HSS7 Percent change … (SD)” value [2] was −34.45 (41.48) %, the “HSS7 Percent change … Median” value [2] was −17.65% and the “HSS7, Mean (SD)” value [3] was 10.73 (4.90). The “HSS7 Change from baseline, Mean (SD)” value [3] was −4.00 (4.92), the “HSS7 Change from baseline, Median” value [3] was −3.00 and the “HSS7 Percent change … (SD)” value [3] was −25.31 (29.00) %. For the same molecule, the “HSS7 Percent change … Median” value [3] was −20.00%, the “HSS7, Mean (SD)” value [4] was 12.00 (NC) and the “HSS7, Median” value [4] was 12.00. For the same molecule, the “HSS7 Change from baseline, Mean (SD)” value [4] was −8.00 (NC), the “HSS7 Change from baseline, Median” value [4] was −8.00 and the “HSS7 Percent change … (SD)” value [4] was −40.00 (NC) %. For the same molecule, the “HSS7 Percent change … Median” value [4] was −40.00%, the “HSS7, Mean (SD)” value [5] was 8.26 (4.91) and the “HSS7, Median” value [5] was 8.00. The “HSS7 Change from baseline, Mean (SD)” value [5] was −5.40 (5.44), the “HSS7 Change from baseline, Median” value [5] was −5.00 and the “HSS7 Percent change … (SD)” value [5] was −36.74 (35.15) %. For the same molecule, the “HSS7 Percent change … Median” value [5] was −33.33%, the “HSS7, Mean (SD)” value [6] was 4.83 (3.31) and the “HSS7, Median” value [6] was 4.50. The “HSS7 Change from baseline, Mean (SD)” value [6] was −11.19 (4.74), the “HSS7 Percent change … (SD)” value [6] was −70.33 (16.48) % and the “HSS7 Percent change … Median” value [6] was −71.43%. For the same molecule, the “HSS7, Mean (SD)” value [7] was 9.27 (5.49), the “HSS7, Median” value [7] was 7.50 and the “HSS7 Change from baseline, Mean (SD)” value [7] was −5.10 (4.74). The “HSS7 Change from baseline, Median” value [7] was 5.50, the “HSS7 Percent change … (SD)” value [7] was −35.29 (34.55) % and the “HSS7 Percent change … Median” value [7] was −37.50%. For the same molecule, the “HSS7, Mean (SD)” value [8] was 8.17 (7.08), the “HSS7, Median” value [8] was 9.50 and the “HSS7 Change from baseline, Mean (SD)” value [8] was −7.00 (8.15). For the same molecule, the “HSS7 Change from baseline, Median” value [8] was −4.50, the “HSS7 Percent change … (SD)” value [8] was −42.16 (46.38) % and the “HSS7 Percent change … Median” value [8] was −26.47%. For the same molecule, the “HSS7, Mean (SD)” value [9] was 10.90 (4.97), the “HSS7 Change from baseline, Mean (SD)” value [9] was −3.83 (4.91) and the “HSS7 Change from baseline, Median” value [9] was 3.00. The “HSS7 Percent change … (SD)” value [9] was −23.50 (30.60) %, the “HSS7 Percent change … Median” value [9] was −21.43% and the “HSS7, Mean (SD)” value [10] was 13.00 (NC). The “HSS7, Median” value [10] was 13.00, the “HSS7 Change from baseline, Mean (SD)” value [10] was −7.00 (NC) and the “HSS7 Change from baseline, Median” value [10] was −7.00. For the same molecule, the “HSS7 Percent change … (SD)” value [10] was −35.00 (NC) %, the “HSS7 Percent change … Median” value [10] was −35.00% and the “HSS7, Mean (SD)” value [11] was 7.25 (5.05). For the same molecule, the “HSS7, Median” value [11] was 7.00, the “HSS7 Change from baseline, Mean (SD)” value [11] was −6.40 (5.94) and the “HSS7 Change from baseline, Median” value [11] was −6.00. The “HSS7 Percent change … (SD)” value [11] was −44.30 (37.78) %, the “HSS7 Percent change … Median” value [11] was −42.86% and the “HSS7, Mean (SD)” value [12] was 2.83 (3.31). The “HSS7, Median” value [12] was 1.50, the “HSS7 Change from baseline, Mean (SD)” value [12] was −13.19 (5.74) and the “HSS7 Change from baseline, Median” value [12] was −14.00. The HSS7 Percent change from baseline, Mean (SD) [12] was -82.7%, the “HSS7 Percent change … Median” value [12] was −81.38% and the “HSS7, Mean (SD)” value [13] was 8.55 (6.09). For the same molecule, the “HSS7, Median” value [13] was 7.00, the “HSS7 Change from baseline, Mean (SD)” value [13] was −5.73 (5.31) and the “HSS7 Change from baseline, Median” value [13] was −5.00. For the same molecule, the “HSS7 Percent change … (SD)” value [13] was −40.65 (36.39) %, the “HSS7 Percent change … Median” value [13] was −41.67% and the “HSS7, Mean (SD)” value [14] was 7.67 (7.00). The “HSS7, Median” value [14] was 7.50, the “HSS7 Change from baseline, Mean (SD)” value [14] was −7.50 (8.22) and the “HSS7 Change from baseline, Median” value [14] was −6.00. For the same molecule, the “HSS7 Percent change … (SD)” value [14] was −45.10 (46.71) %, the “HSS7 Percent change … Median” value [14] was −35.29% and the “HSS7, Mean (SD)” value [15] was 10.41 (4.97). For the same molecule, the “HSS7, Median” value [15] was 9.00, the “HSS7 Change from baseline, Mean (SD)” value [15] was −4.32 (4.60) and the “HSS7 Change from baseline, Median” value [15] was −2.00. For the same molecule, the “HSS7 Percent change … (SD)” value [15] was −27.98 (28.68) %, the “HSS7 Percent change … Median” value [15] was −28.57% and the “HSS7, Mean (SD)” value [16] was 10.00 (NC). For the same molecule, the “HSS7 Change from baseline, Mean (SD)” value [16] was −10.00 (NC), the “HSS7 Change from baseline, Median” value [16] was −10.00 and the “HSS7 Percent change … (SD)” value [16] was −50.00 (NC) %. For the same molecule, the “HSS7 Percent change … Median” value [16] was −50.00%, the “HSS7, Mean (SD)” value [17] was 7.03 (4.82) and the “HSS7, Median” value [17] was 7.00. For the same molecule, the “HSS7 Change from baseline, Mean (SD)” value [17] was −6.63 (6.22), the “HSS7 Change from baseline, Median” value [17] was −7.00 and the “HSS7 Percent change … (SD)” value [17] was −47.46 (36.18) %. For the same molecule, the “HSS7 Percent change … Median” value [17] was −48.81%, the “HSS7, Mean (SD)” value [18] was 3.39 (2.63) and the “HSS7, Median” value [18] was 2.67. The “HSS7 Change from baseline, Mean (SD)” value [18] was −12.64 (6.13), the “HSS7 Change from baseline, Median” value [18] was −14.50 and the “HSS7 Percent change … (SD)” value [18] was −76.71 (14.38) %. The “HSS7 Percent change … Median” value [18] was −71.43%.
